Results from publication PMC12217474 (Antimicrobial Agents and Chemotherapy, 2025).
Where two headings read alike, the source gives them in different places.

Legend:
[1] = for ELF AUC0-24 / Plasma AUC0-24: steady state, healthy subjects, Study I6424-108a, N = 20
Description: By fixing the plasma PK parameters to the individual post hoc values, it was possible to predict ELF concentrations using a biophase model with unidirectional first-order transfer from the central compartment to ELF (k13) and first-order elimination from the ELF compartment (k30). In order to allow for the estimation of IIV in k30, since only one ELF measurement was collected per subject, the residual variability of ELF data was fixed to be equal to that previously estimated for the plasma PK data in healthy subjects from Phases 1 and 4 studies. […] In this simulation, the parameter estimates from the modified final population PK model were utilized along with the mean (standard deviation) of the subject covariate effects in the model, such as age and body weight from healthy subjects in Study I6424-108a.

[2] = clinical; conditions: human, iv, 10 mg/kg; for Kp uu: epithelial lining fluid (ELF) / plasma; for Kp: epithelial lining fluid (ELF) versus total-drug plasma, ELF penetration ratio (total drug)
[3] = cited from earlier work
[4] = final population PK model, final estimate

In the case of `CCCCCCCCCCNCCN[C@@]1(C)C[C@H](O[C@H]2[C@H](Oc3c4cc5cc3Oc3ccc(cc3Cl)[C@@H](O)[C@@H](NC(=O)[C@@H](CC(C)C)NC)C(=O)N[C@@H](CC(N)=O)C(=O)N[C@H]5C(=O)N[C@H]3C(=O)N[C@H](C(=O)N[C@H](C(=O)O)c5cc(O)c(CNCP(=O)(O)O)c(O)c5-c5cc3ccc5O)[C@H](O)c3ccc(c(Cl)c3)O4)O[C@H](CO)[C@@H](O)[C@@H]2O)O[C@@H](C)[C@H]1O` [telavancin], the “k30 (first-order elimination from the ELF compartment)” value ([1]; ELF population PK model, final estimate, 18 healthy subjects) is reported as 0.154 h⁻¹, the “ELF AUC0-24” value ([1]; 10 mg/kg IV q24h, urea-corrected BAL, mean (SD), SD) is reported as 54.5 (16.1) mg·hour/L and the “ELF AUC0-24” value ([1]; 10 mg/kg IV q24h, maximum) is reported as 99.0 mg·h/L. For the same compound, the “Plasma AUC0-24” value ([1]; 10 mg/kg IV q24h, maximum) was 954 mg·h/L, the “ELF AUC0-24” value ([1]; 10 mg/kg IV q24h, median) was 50.6 mg·h/L and the “Plasma AUC0-24” value ([1]; 10 mg/kg IV q24h, median) was 757 mg·h/L. The “ELF AUC0-24” value ([1]; 10 mg/kg IV q24h, minimum) was 38.3 mg·h/L, the “Plasma AUC0-24” value ([1]; 10 mg/kg IV q24h, minimum) was 570 mg·h/L and the “Plasma AUC0-24” value ([1]; 10 mg/kg IV q24h for 3 days, mean (SD), SD) was 750 (103) mg·hour/L. The “CLDL (dialysis clearance)” value (bootstrap (N = 200), mean) was 1.79 L/h, the “CLR, max (maximum renal clearance)” value (bootstrap (N = 200), mean) was 1.04 L/h and the “CLd coefficient (distributional clearance between central and peripheral compartments)” value (“CLd coefficient” below) (bootstrap (N = 200), mean) was 3.78 L/h. For the same compound, the Vc-TBW power (bootstrap (N = 200), mean) was 0.438, the Vc-age power (bootstrap (N = 200), mean) was 0.184 and the “Vc-increase for CKD5 subjects after >48 hours has elapsed between IHD sessions” value (“Vc-increase for CKD5 subjects” for short) (bootstrap (N = 200), mean) was 1.57 L. The “Vc-proportional increase for bacteremia/HABP/VABP patients” value (bootstrap (N = 200), mean) was 0.600, the “Vc-proportional increase for cSSSI patients” value (bootstrap (N = 200), mean) was 0.299 and the “Vc-proportional increase for females” value (bootstrap (N = 200), mean) was −0.0583. It also gave a Vp-BMI power (bootstrap (N = 200), mean) of −0.325, a Vp-TBW power (bootstrap (N = 200), mean) of 0.971 and a Vp-age power (bootstrap (N = 200), mean) of 0.289. For the same compound, the “Vp-proportional increase for bacteremia/HABP/VABP patients” value (bootstrap (N = 200), mean) was 0.288, the “Vp-proportional increase for cSSSI patients” value (bootstrap (N = 200), mean) was 0.127 and the “CLDL (dialysis clearance)” value (bootstrap (N = 200), median) was 1.77 L/h. The “CLR, max (maximum renal clearance)” value (bootstrap (N = 200), median) was 1.04 L/h, the “CLd coefficient” value (bootstrap (N = 200), median) was 3.75 L/h and the Vc-TBW power (bootstrap (N = 200), median) was 0.442. For the same compound, the Vc-age power (bootstrap (N = 200), median) was 0.183, the “Vc-increase for CKD5 subjects” value (bootstrap (N = 200), median) was 1.56 L and the “Vc-proportional increase for bacteremia/HABP/VABP patients” value (bootstrap (N = 200), median) was 0.599. The “Vc-proportional increase for cSSSI patients” value (bootstrap (N = 200), median) was 0.300, the “Vc-proportional increase for females” value (bootstrap (N = 200), median) was −0.0577 and the Vp-BMI power (bootstrap (N = 200), median) was −0.317. For the same compound, the Vp-TBW power (bootstrap (N = 200), median) was 0.969, the Vp-age power (bootstrap (N = 200), median) was 0.289 and the “Vp-proportional increase for bacteremia/HABP/VABP patients” value (bootstrap (N = 200), median) was 0.295. The “Vp-proportional increase for cSSSI patients” value (bootstrap (N = 200), median) was 0.125, the “CLNR (non-renal clearance)” value (bootstrap of final population PK model (N = 200), mean) was 0.399 L/h and the “CLNR (non-renal clearance)” value (bootstrap of final population PK model (N = 200), median) was 0.402 L/h. For the same compound, the Vc-TBW power [4] was 0.469, the Vc-age power [4] was 0.188 and the “Vc-proportional increase for bacteremia/HABP/VABP patients” value [4] was 0.578. For the same compound, the “Vc-proportional increase for cSSSI patients” value [4] was 0.313, the “Vc-proportional increase for females” value [4] was −0.0584 and the Vp-BMI power [4] was −0.308. For the same compound, the Vp-TBW power [4] was 0.976, the Vp-age power [4] was 0.272 and the “Vp-proportional increase for bacteremia/HABP/VABP patients” value [4] was 0.329. For the same compound, the “Vp-proportional increase for cSSSI patients” value [4] was 0.118, the “CLR, max (maximum renal clearance)” value (final population PK model, final estimate, Hill-type CLR-CLcr relationship, N = 1,205) was 1.04 L/h and the “CLd coefficient” value (final population PK model, final estimate, N = 1,205) was 3.73 L/h. For the same compound, the “Vc-increase for CKD5 subjects” value (final population PK model, final estimate, additive increase) was 1.55 L, the “CLDL (dialysis clearance)” value (final population PK model, final estimate, during active intermittent hemodialysis, eight CKD5 subjects) was 1.77 L/h and the “CLNR (non-renal clearance)” value (final population PK model, final estimate, plasma, IV, healthy subjects and patients, N = 1,205) was 0.407 L/h. For the same compound, the Kp uu ([2]; ELF penetration ratio (free drug), ELF AUC0-24/(0.1 total-drug plasma AUC0-24), median, N = 20) was 0.683, the Kp uu ([2]; SD) was 0.73 and the Kp ([2]; ELF AUC0-24/total-drug plasma AUC0-24, healthy subjects, Study I6424-108a, mean (SD), N = 20, SD) was 0.073. For the same compound, the Kp ([2]; ELF AUC0-24/total-drug plasma AUC0-24, median, N = 20) was 0.0683.
In the case of dalbavancin, the “reported ELF penetration” value [3] is given as 36%.
For oritavancin, the “reported ELF penetration ratio” value ([3]; in vivo) is listed as 459%.
In the case of vancomycin, the ELF penetration ([3]; healthy volunteers with outliers removed) is listed as 41%–56.
